In publication PMC9667784, “Synthesis, biological evaluation and computational studies of pyrazole derivatives as Mycobacterium tuberculosis CYP121A1 inhibitors” (RSC Medicinal Chemistry, 2022):

Target: BTFA-labelled CYP121_S171C (Mycobacterium tuberculosis, UniProt P9WPP7, S171C)
Type: binding

| SMILES | 19F NMR perturbations of the FG-loop compared with cYY |
| --- | --- |
| COc1ccc(-c2nn(-c3ccc(Cl)cc3)cc2Cn2cncn2)cc1 [12b, 1-((1-(4-Chlorophenyl)-3-(4-methoxyphenyl)-1H-pyrazol-4-yl)methyl)-1H-1,2,4-triazole] | more intense than that of cYY |
| CCOc1ccc(-c2nn(-c3ccc(Cl)cc3)cc2Cn2cncn2)cc1 [12d, 1-((1-(4-Chlorophenyl)-3-(4-ethoxyphenyl)-1H-pyrazol-4-yl)methyl)-1H-1,2,4-triazole] | more intense than that of cYY |
